One series deals with KIF5B-RET/HEK293T cells. The experiment in a line: Cell proliferation activity in KIF5B-RET/HEK293T cells (Cell-Titer Glo). The format is cell-based. The conditions noted are these: Homo sapiens, HEK-293T, 72 h, read-out: KIFSB-RETV^804M/293T (Cell)IC50.
The next series relates to TT cells. The experiment in a line: TT cell proliferation activity (Cell-Titer Glo). The following applies: TT human thyroid carcinoma cells, 120 h. The format is cell-based. In outline: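 Human thyroid carcinoma TT cells, plated 5000/well a day prior, were exposed 120 h at 37 °C to ten 3-fold compound dilutions (10 mM DMSO stock top). Cell-Titer Glo luminescence gave IC50 for proliferation inhibition.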

Series [1] in a line: Pharmacokinetic data of compounds in male SD rats. In kind it is in vivo. The following applies: rat, po, intragastric, 5 mg/kg, suspension MC 0.5%, plasma. On the procedure:
6. Pharmacokinetic Data of Compounds
Male SD rats (Beijing Vital River Laboratory Animal Technology Co., Ltd) were divided into groups. 3 in each group, received intragastric administration with the suspension of the test sample (5 mg/kg, suspensions MC 0.5%), respectively. Animals were fasted overnight prior to the experiment from 10 h before dosing to 4 h after dosing. Blood was collected 0.25, 0.5, 1, 2, 4, 6, 8, and 24 h after administration, respectively. After isoflurane anesthesia using a small animal anesthesia machine, 0.3 mL of whole blood samples was taken through the fundus venous plexus, placed in a heparin anticoagulant tube, and were centrifuged at 4° C. 4000 rpm for 5 min plasma was transferred to the centrifuge tube, and stored at −80° C. until analysis. Samples in the plasma were extracted using protein precipitation and the extracts were analyzed by LC/MS.

Another series has as its target VEGFR2 (Homo sapiens, UniProt P35968). Nature of the series: In vitro enzymatic activity assay on VEGFR2 (HTRF). The following applies: GST-VEGFR2 0.1 nM, ATP 2.5 μM. In kind it is biochemical. An outline of the steps: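 GST-VEGFR2 (0.1 nM final) with 2.5 μM ATP and 1 μM TK peptide substrate in HEPES pH 7.5 buffer with Mg²⁺/Mn²⁺, 1.5 h at 23 °C. HTRF read-out (665/620 nm ratio) after adding TK antibody and streptavidin-XL665. IC50 from 7-point, 5-fold dilution series.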

For another series, the target named is T1, RET^WT (Homo sapiens, UniProt P07949).
T1 construct: GST-RET^WT (658-1114 aa, final concentration of 0.5 nM)
T1 sequence (P07949 658-1114): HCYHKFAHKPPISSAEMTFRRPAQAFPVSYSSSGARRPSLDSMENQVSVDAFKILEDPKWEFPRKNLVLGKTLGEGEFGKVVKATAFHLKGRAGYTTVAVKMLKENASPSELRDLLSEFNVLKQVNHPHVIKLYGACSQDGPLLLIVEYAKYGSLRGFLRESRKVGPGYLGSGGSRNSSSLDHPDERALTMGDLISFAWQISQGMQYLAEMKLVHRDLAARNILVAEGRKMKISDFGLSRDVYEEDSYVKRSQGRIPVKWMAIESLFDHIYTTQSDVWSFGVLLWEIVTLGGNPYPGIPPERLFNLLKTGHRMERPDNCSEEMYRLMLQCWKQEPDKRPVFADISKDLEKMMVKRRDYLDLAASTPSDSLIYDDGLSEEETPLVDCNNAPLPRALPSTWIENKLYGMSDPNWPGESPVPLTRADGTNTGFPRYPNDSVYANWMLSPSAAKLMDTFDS
Nature of the series: In vitro enzymatic activity assay on RET^WT (HTRF). The format is biochemical. The following applies: GST-RET^WT (658-1114 aa) 0.5 nM, ATP 25 μM. An outline of the steps:
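Reaction run 2 h at 23 °C in HEPES pH 7.5 buffer with Na3VO4, MgCl2, DTT, Tween 20 and BSA; compounds tested at 7 concentrations (5-fold serial dilution in DMSO from 0.2 mM stock). HTRF detection with TK antibody and streptavidin-XL665; IC50 from curve fitting.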

Another series has as its target T2, RET^V804M (Homo sapiens, UniProt P07949, V804M).
T2 construct: GST-RET^V804M (658-1114 aa, final concentration of 0.02 nM)
T2 sequence (P07949 658-1114 V804M): T1 sequence (P07949 658-1114) with V147M
The experiment in a line: In vitro enzymatic activity assay on RET^V804M (HTRF). The format is biochemical. The following applies: GST-RET^V804M (658-1114 aa) 0.02 nM, ATP 1.5 μM.

Positions count from the first letter of the chain named.

VEGFR2, sequence (P35968 20-1356): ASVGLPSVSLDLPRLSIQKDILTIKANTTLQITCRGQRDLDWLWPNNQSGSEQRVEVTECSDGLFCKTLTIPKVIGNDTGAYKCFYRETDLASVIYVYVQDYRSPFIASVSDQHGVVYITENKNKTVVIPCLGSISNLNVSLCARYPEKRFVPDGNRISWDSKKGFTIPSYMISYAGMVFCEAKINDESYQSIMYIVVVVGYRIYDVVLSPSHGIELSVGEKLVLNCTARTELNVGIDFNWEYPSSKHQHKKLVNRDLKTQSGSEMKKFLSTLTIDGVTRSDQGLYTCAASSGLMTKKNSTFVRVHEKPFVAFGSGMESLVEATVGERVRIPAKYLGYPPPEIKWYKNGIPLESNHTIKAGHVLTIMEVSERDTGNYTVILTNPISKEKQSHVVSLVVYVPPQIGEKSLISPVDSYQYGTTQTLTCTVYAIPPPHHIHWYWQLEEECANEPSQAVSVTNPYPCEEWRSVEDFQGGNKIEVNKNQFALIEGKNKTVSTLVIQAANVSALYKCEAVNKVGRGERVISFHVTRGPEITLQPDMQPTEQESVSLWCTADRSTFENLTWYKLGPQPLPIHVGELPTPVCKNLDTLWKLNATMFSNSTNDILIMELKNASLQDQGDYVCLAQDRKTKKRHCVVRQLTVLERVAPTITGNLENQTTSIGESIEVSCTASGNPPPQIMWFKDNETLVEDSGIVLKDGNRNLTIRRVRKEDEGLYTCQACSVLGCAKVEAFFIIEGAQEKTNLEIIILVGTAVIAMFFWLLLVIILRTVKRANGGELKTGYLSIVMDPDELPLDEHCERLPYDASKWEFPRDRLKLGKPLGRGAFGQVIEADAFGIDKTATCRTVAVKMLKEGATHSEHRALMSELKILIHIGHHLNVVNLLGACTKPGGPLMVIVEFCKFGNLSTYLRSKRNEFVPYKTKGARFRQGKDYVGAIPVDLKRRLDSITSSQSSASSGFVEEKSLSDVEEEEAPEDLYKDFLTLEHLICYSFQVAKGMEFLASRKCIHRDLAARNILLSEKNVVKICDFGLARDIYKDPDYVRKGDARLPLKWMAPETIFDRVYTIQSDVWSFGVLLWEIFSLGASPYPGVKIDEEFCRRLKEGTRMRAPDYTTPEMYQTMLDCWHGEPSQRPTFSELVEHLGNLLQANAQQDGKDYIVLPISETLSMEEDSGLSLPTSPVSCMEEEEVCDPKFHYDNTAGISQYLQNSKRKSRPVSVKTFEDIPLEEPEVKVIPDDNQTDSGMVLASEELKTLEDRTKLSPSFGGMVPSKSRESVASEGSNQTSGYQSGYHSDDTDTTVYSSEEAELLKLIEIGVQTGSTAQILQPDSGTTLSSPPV

For the compound `COc1ccc(CN2C3CC2CN(c2ccc(-c4cc(N5CC(C)(O)C5)cn5ncc(C#N)c45)cn2)C3)cn1` [Example 7, 6-(3-hydroxy-3-methylazetidin-1-yl)-4-(6-(6-((6-methoxypyridin-3-yl)methyl)-3,6-diazabicyclo[3.1.1]heptan-3-yl)pyridin-3-yl)pyrazolo[1,5-a]pyridine-3-carbonitrile], the IC50 with KIF5B-RET/HEK293T cells amounted to 99.1 nM. In addition, in the series with TT cells, the IC50 came out at 7.41 nM. Also, in series [1], the area under the curve AUC(0-inf) came out at 12600 ng·h/mL, the concentration peaked (Cmax) at 1460 ng/mL, the time of peak concentration (Tmax) is 2 h and the half-life is 3.53 h. For the same compound, the IC50 against VEGFR2 amounted to 9.67 nM. The compound further yielded an IC50 against RET^WT of 0.601 nM.

As to `COCC1=C(C(=O)N2CCN(c3ccc(-c4cc(-c5cnn(C)c5)cn5ncc(C#N)c45)cn3)CC2)CCC1` [Example 12, 4-(6-(4-(2-(methoxymethyl)cyclopent-1-ene-1-carbonyl)piperazin-1-yl)pyridin-3-yl)-6-(1-methyl-1Hpyrazol-4-yl)pyrazolo[1,5-a]pyridine-3-carbonitrile], the IC50 was 141 nM with KIF5B-RET/HEK293T cells; 6.3 nM in the series on TT cells; 14.4 nM against VEGFR2; 1.47 nM on RET^V804M; 0.65 nM at RET^WT.

As for `CSc1ccc(CN2CCN(c3ccc(-c4cc(-c5cnn(C)c5)cn5ncc(C#N)c45)cn3)CC2)nc1` [Example 9, 6-(1-methyl-1Hpyrazol-4-yl)-4(6-(4-((5-(methylthio)pyridin-2-yl)methyl)piperazin-1-yl)pyridin-3-yl)pyrazolo[1,5-a]pyridine-3-carbonitrile], the IC50 in the series on KIF5B-RET/HEK293T cells came out at 371 nM; in the series with TT cells, 37.3 nM; at VEGFR2, 10 nM; against RET^V804M, 1.22 nM; at RET^WT it was 0.565 nM. Besides, in series [1], the area under the curve AUC(0-inf) was determined as 8290 ng·h/mL. The highest level in series [1] (Cmax) was 1660 ng/mL. In addition, the Tmax in series [1] worked out at 2.17 h. In series [1], this compound gave a half-life of 2.02 h.

As to `CSc1ccc(CN2C3CC2CN(c2ccc(-c4cc(-c5cnn(C(F)F)c5)cn5ncc(C#N)c45)cn2)C3)cn1` [Example 60, 6-(1-(difluoromethyl)-1Hpyrazol-4-yl)-4-(6-(6-((6-(methylthio)pyridin-3-yl)methyl)-3,6-diazabicyclo[3.1.1]heptan-3-yl)pyridin-3-yl)pyrazolo[1,5-a]pyridine-3-carbonitrile], the IC50 in the series with KIF5B-RET/HEK293T cells is 281 nM; in the series with TT cells, 18.5 nM; against VEGFR2, 3.1 nM; against RET^V804M it was 0.593 nM; against RET^WT, 0.103 nM. Also, in series [1], the total exposure AUC(0-inf) came to 14700 ng·h/mL. In series [1], this compound registered a Cmax of 1140 ng/mL. Moreover, in series [1], the Tmax was 1.5 h. The same compound gave a half-life in series [1] of 7.45 h.

Values taken from patent US12583855B2, “RET selective inhibitor, preparation method therefor and use thereof” (SHOUYAO HOLDINGS (BEIJING) CO., LTD., priority 2019, dated 2026).
